In ChEMBL document CHEMBL1136512, “Discovery of a novel series of 6-azauracil-based thyroid hormone receptor ligands: potent, TR beta subtype-selective thyromimetics” (Bioorg Med Chem Lett, 2003) one finds Ki and EC50 data, which are given here for 23 molecules.

Usually Ki stands for the dissociation constant of the complex between target and ligand, obtained from inhibition or displacement. Read a low Ki as tighter binding. What is called EC50 is the concentration giving half of the maximal effect. A high value points to lower potency in that assay.

Each structure is given as a SMILES string.

For the first experiment, the target named is T1, Thyroid hormone receptor beta (Homo sapiens, UniProt P10828).
T1 sequence (P10828 whole entry): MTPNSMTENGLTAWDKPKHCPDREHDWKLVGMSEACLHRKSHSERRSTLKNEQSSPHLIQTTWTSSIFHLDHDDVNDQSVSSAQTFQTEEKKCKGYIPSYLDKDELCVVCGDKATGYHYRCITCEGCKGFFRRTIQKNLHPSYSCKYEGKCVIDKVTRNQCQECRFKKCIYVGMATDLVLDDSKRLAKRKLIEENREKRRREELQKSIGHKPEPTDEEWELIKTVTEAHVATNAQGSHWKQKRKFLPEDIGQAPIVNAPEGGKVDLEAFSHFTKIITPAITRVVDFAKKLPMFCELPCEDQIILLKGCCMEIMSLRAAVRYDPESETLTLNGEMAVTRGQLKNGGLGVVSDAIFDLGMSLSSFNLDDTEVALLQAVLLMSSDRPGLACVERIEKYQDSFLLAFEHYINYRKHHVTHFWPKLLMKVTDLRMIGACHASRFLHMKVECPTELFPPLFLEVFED
Turning to `Cc1cc(N2CCCNC2=O)cc(C)c1Oc1ccc(O)c(C(C)C)c1`, affinity was put at a Ki of 10000 nM. In other words, the double-digit micromolar range.

Take `CC1(C)C2CCC(NC(=O)c3cc(Oc4c(Cl)cc(-n5ncc(=O)[nH]c5=O)cc4Cl)ccc3O)C1C2` (stereo in doubt; 9i): the inhibition constant (Ki) is 0.06 nM. Molecule `CSc1ccc(Oc2c(C)cc(-n3ncc(=O)[nH]c3=O)cc2C)cc1C` returned a Ki of 2 nM.

Take `O=C(c1cc(Oc2c(Cl)cc(-n3ncc(=O)[nH]c3=O)cc2Cl)ccc1O)N1CC2CCC1C2` (racemic; endo): the Ki came out at 0.16 nM. Take `Cc1cc(-n2ncc(=O)[nH]c2=O)cc(C)c1Oc1ccc(O)c(S(=O)(=O)N2CCCCC2)c1`: the inhibitory constant (Ki) is 0.46 nM. The molecule `O=c1cnn(-c2cc(Cl)c(Oc3ccc(O)c(S(=O)(=O)Nc4ccccc4)c3)c(Cl)c2)c(=O)[nH]1` registered a Ki of 0.1 nM. This Ki is about 4.6-fold lower than that of the molecule before. `O=C(c1cc(Oc2c(Cl)cc(-n3ncc(=O)[nH]c3=O)cc2Cl)ccc1O)N1CCCCC1` came in with a Ki of 0.63 nM. In turn, `O=C(NC1CCC1)c1cc(Oc2c(Cl)cc(-n3ncc(=O)[nH]c3=O)cc2Cl)ccc1O` displayed a Ki of 0.64 nM. The molecule `O=c1cnn(-c2cc(Cl)c(Oc3ccc(O)c(S(=O)(=O)NC4CCC4)c3)c(Cl)c2)c(=O)[nH]1` registered a Ki of 0.4 nM. This Ki lies about 1.6-fold lower than the previous one. Molecule `Cc1cc(-n2ncc(=O)[nH]c2=O)cc(Cl)c1Oc1ccc(O)c(S(=O)(=O)N2CCOCC2)c1` displayed a Ki of 27 nM. This Ki lies about 68-fold higher than the previous one. The same measure, in the same setting: with `O=c1cnn(-c2cc(Cl)c(Oc3ccc(O)c(S(=O)(=O)N4CCCCC4)c3)c(Cl)c2)c(=O)[nH]1` the figure was 0.02 nM. Consider `O=C(c1cc(Oc2c(Cl)cc(-n3ncc(=O)[nH]c3=O)cc2Cl)ccc1O)N1CCOCC1`, for which the affinity corresponds to a Ki of 0.72 nM. For `O=C(c1cc(Oc2c(Cl)cc(-n3ncc(=O)[nH]c3=O)cc2Cl)ccc1O)N1CC2CCC1C2` (stereo in doubt; 9h (R)-(+)), the Ki turned out to be 0.37 nM.

Turning to `Cc1cc(-n2ncc(=O)[nH]c2=O)cc(Cl)c1Oc1ccc(O)c(C(=O)N2CCCCC2)c1`, the Ki turned out to be 1.9 nM.

In turn, `O=c1cnn(-c2cc(Cl)c(Oc3ccc(O)c(S(=O)(=O)NC4CCCCC4)c3)c(Cl)c2)c(=O)[nH]1` displayed a Ki of 0.46 nM.

`Cc1cc(-n2ncc(=O)[nH]c2=O)cc(Cl)c1Oc1ccc(O)c(S(=O)(=O)N2CCN(C)CC2)c1`: the inhibition constant Ki is 13 nM. This Ki is about 28-fold higher than that of the molecule before.

Take `O=c1cnn(-c2cc(Cl)c(Oc3ccc(O)c(S(=O)(=O)N4C5CCC4CC4(CCCO4)C5)c3)c(Cl)c2)c(=O)[nH]1` (stereo unspecified): affinity was put at a Ki of 0.28 nM. As for `CC1(C)C2CCC(NC(=O)c3cc(Oc4c(Cl)cc(-n5ncc(=O)[nH]c5=O)cc4Cl)ccc3O)C1C2` (stereo in doubt; 9j), the Ki came out at 0.04 nM.

As for `Cc1cc(-n2ncc(=O)[nH]c2=O)cc(Cl)c1Oc1ccc(O)c(S(=O)(=O)N2CCCCC2)c1`, the Ki was 0.13 nM.

Molecule `O=c1cnn(-c2cc(Cl)c(Oc3ccc(O)c(S(=O)(=O)N4C5CCC4CC4(C5)OCCO4)c3)c(Cl)c2)c(=O)[nH]1` gave a Ki of 0.31 nM. Same read-out and setting: the same measure for `O=c1cnn(-c2cc(Cl)c(Oc3ccc(O)c(S(=O)(=O)n4ccc5ccccc54)c3)c(Cl)c2)c(=O)[nH]1`: 0.23 nM.

Take `O=C(c1cc(Oc2c(Cl)cc(-n3ncc(=O)[nH]c3=O)cc2Cl)ccc1O)N1CC2CCC1C2` (racemic; exo): the inhibition constant Ki was determined as 0.59 nM. This Ki lies about 2.6-fold higher than the previous one. `O=C(NC1CCCCC1)c1cc(Oc2c(Cl)cc(-n3ncc(=O)[nH]c3=O)cc2Cl)ccc1O` registered a Ki of 0.07 nM.

The target of another experiment is T1, Thyroid hormone receptor beta. The experiment in a line: Effective concentration binding towards TR-beta-1 in E25B2 cells (agonistic activity).
As for `O=c1cnn(-c2cc(Cl)c(Oc3ccc(O)c(S(=O)(=O)N4C5CCC4CC4(CCCO4)C5)c3)c(Cl)c2)c(=O)[nH]1` (stereo unspecified), the EC50 stood at 62 nM.

A further experiment has as its target T2, Thyroid hormone receptor alpha (Homo sapiens, UniProt P10827).
T2 sequence (P10827 whole entry): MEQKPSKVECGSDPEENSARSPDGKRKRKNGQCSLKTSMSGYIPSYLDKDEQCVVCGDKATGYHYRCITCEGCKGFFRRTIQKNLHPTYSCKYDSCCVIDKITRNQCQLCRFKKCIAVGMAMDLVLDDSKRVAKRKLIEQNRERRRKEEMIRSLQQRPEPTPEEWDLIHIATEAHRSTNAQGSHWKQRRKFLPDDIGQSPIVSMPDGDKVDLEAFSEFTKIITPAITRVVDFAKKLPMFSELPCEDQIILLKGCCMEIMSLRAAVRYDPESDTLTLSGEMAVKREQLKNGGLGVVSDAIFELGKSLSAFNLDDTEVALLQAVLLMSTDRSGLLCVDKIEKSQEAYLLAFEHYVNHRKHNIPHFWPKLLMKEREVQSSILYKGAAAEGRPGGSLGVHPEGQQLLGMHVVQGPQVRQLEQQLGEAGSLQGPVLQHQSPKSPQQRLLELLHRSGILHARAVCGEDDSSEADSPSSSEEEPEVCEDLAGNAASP
Description: Effective concentration binding towards TRalpha in E25B2 cells (agonistic activity)
In turn, `CC1(C)C2CCC(NC(=O)c3cc(Oc4c(Cl)cc(-n5ncc(=O)[nH]c5=O)cc4Cl)ccc3O)C1C2` (stereo in doubt; 9i) came in with an EC50 of 12 nM. This counts as double-digit nanomolar. As for `O=c1cnn(-c2cc(Cl)c(Oc3ccc(O)c(S(=O)(=O)N4C5CCC4CC4(CCCO4)C5)c3)c(Cl)c2)c(=O)[nH]1` (stereo unspecified), it took 1500 nM to reach a half-maximal effect (EC50).
